Some test systems named below: CCRF-CEM leukemia; HCT-15 colon; NCI-H226 lung; NCI-H522 lung; NCI/ADR-RES ovarian; OVCAR-3 ovarian; OVCAR-4 ovarian; SF-539 CNS; SK-MEL-2 melanoma; SK-MEL-28 melanoma.
Common to all, as to experiment: NCI-60 cell line screen, 48 h

Where “and” joins values, the source holds several entries; their conditions need not be identical. Equal entries are not always repeated.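 The compound was tested at five concentrations on cells cultured in 96-well plates, with a 48-hour exposure period. GI50: concentration for 50% inhibition of growth. TGI marks complete inhibition of growth.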

On to `CC1(C)CC23C4COC(=O)C2CCC1C3CC4=O` (stereo not given), for which the TGI with CCRF-CEM leukemia turned out to be 43.4 µM; in the experiment on HCT-15 colon it was 21.9 µM; in the experiment with NCI-H226 lung, 20.6 µM; in the experiment on NCI-H522 lung, 11.2 µM; with NCI/ADR-RES ovarian, 24.8 µM; with OVCAR-3 ovarian, 27.7 µM. The TGI with OVCAR-4 ovarian was determined as 64.2 µM; with SF-539 CNS, 45.1 µM; with SK-MEL-2 melanoma it was 40.6 µM; with SK-MEL-28 melanoma, 18.9 µM.
With `COC1=C2CC(C)CC(OC)C(O)C(C)/C=C(\C)C(OC(N)=O)C(OC)/C=C\C=C(/C)C(=O)NC(=C(C=NC(C)(C)C)C1=O)C2=O` (stereo not given), the TGI in the experiment with CCRF-CEM leukemia amounted to 22.2 µM; in the experiment with HCT-15 colon, 33.1 µM; with NCI-H226 lung, 13.8 µM; in the experiment with NCI-H522 lung, 1.63 µM; in the experiment with NCI/ADR-RES ovarian, 44.4 µM; in the experiment with OVCAR-3 ovarian, 13.2 µM. Also, the TGI is 14.4 µM with OVCAR-4 ovarian, 24.2 µM in the experiment with SF-539 CNS, 12.3 µM in the experiment on SK-MEL-2 melanoma and 11.7 µM with SK-MEL-28 melanoma.
Consider `CC[C@]1(O)C[C@H]2CN(CCc3c([nH]c4ccccc34)[C@@](C(=O)OC)(c3cc4c(cc3OC)N(C=O)[C@H]3[C@@](O)(C(=O)OC)[C@H](OC(C)=O)[C@]5(CC)C=CCN6CC[C@]43[C@@H]65)C2)C1`, for which the GI50 was 0.00705 µM in the experiment on NCI-H522 lung; 1.18 µM and 0.536 µM and 1.95 µM with NCI/ADR-RES ovarian; 0.00464 µM with SK-MEL-28 melanoma. Also, the TGI is 0.226 µM and 0.143 µM in the experiment with NCI-H522 lung; 4.87 µM and 12.5 µM and 8.04 µM with NCI/ADR-RES ovarian; 132 µM and 135 µM in the experiment with OVCAR-4 ovarian; 113 µM with SK-MEL-28 melanoma.
With `COc1cc2c(cc1OC)-c1cc3ccccc3c[n+]1CC2`, the TGI is over 100 µM in the experiment with CCRF-CEM leukemia; over 100 µM in the experiment with NCI-H226 lung; 68.3 µM in the experiment on NCI-H522 lung; over 100 µM in the experiment on NCI/ADR-RES ovarian; over 100 µM in the experiment on OVCAR-3 ovarian; over 100 µM in the experiment with OVCAR-4 ovarian. Also, the TGI in the experiment with SF-539 CNS, in the experiment with SK-MEL-2 melanoma and with SK-MEL-28 melanoma was over 100 µM each time.
On to `O=C1OC(c2ccccc2)=N/C1=C\c1cccnc1`, for which the TGI with CCRF-CEM leukemia, in the experiment with HCT-15 colon, in the experiment on NCI-H226 lung, with NCI-H522 lung, with NCI/ADR-RES ovarian and in the experiment with OVCAR-3 ovarian was over 100 µM throughout. The TGI with OVCAR-4 ovarian, in the experiment on SF-539 CNS, in the experiment on SK-MEL-2 melanoma and in the experiment with SK-MEL-28 melanoma was over 100 µM in each case.
As for `CCS(=O)(=O)N1CCC(C(C)n2c(C)c(C(=O)NCc3c(OC)cc(C)[nH]c3=O)c3ccccc32)CC1` (stereo not given), the GI50 in the experiment on HCT-15 colon, with NCI-H226 lung, with NCI-H522 lung, with NCI/ADR-RES ovarian, in the experiment on OVCAR-3 ovarian and in the experiment with OVCAR-4 ovarian was over 100 µM in each case. In addition, the GI50 in the experiment with SF-539 CNS, in the experiment on SK-MEL-2 melanoma and in the experiment on SK-MEL-28 melanoma was over 100 µM throughout. The TGI in the experiment on HCT-15 colon, with NCI-H226 lung, in the experiment with NCI-H522 lung, in the experiment with NCI/ADR-RES ovarian, in the experiment on OVCAR-3 ovarian and with OVCAR-4 ovarian was over 100 µM throughout. In addition, the TGI with SF-539 CNS, in the experiment on SK-MEL-2 melanoma and with SK-MEL-28 melanoma was over 100 µM throughout.
Take `N/C(=N\N=C/c1ccccc1O)NO`: the TGI is over 50.9 µM in the experiment with CCRF-CEM leukemia; over 100 µM in the experiment with HCT-15 colon; 64.8 µM in the experiment on NCI-H226 lung; 29.8 µM in the experiment on NCI-H522 lung; 44.2 µM with NCI/ADR-RES ovarian; over 100 µM in the experiment with OVCAR-3 ovarian. Besides, the TGI with OVCAR-4 ovarian was 31.1 µM; in the experiment with SF-539 CNS, 28.3 µM; in the experiment with SK-MEL-2 melanoma it was over 90.8 µM; in the experiment on SK-MEL-28 melanoma, over 100 µM.
On to `Fc1ccc2[nH]cc(-c3nc(-c4c[nH]c5ncccc45)cs3)c2c1`, for which, in the experiment with SK-MEL-2 melanoma, the GI50 is over 100 µM and the TGI was over 100 µM. In the experiment with SK-MEL-28 melanoma, the GI50 was over 100 µM and the TGI was over 100 µM.
In the case of `CS(=O)(=O)c1ccc(/C=N/NC(N)=S)cc1`, the TGI with HCT-15 colon, with NCI-H226 lung, with NCI-H522 lung, with NCI/ADR-RES ovarian, in the experiment on OVCAR-3 ovarian and with OVCAR-4 ovarian was over 100 µM in each case. Also, in the experiment with SK-MEL-28 melanoma, the TGI was over 100 µM.
On to `O=C1OC[C@@H]2[C@@H](O)CCCCCN12`, for which the TGI in the experiment with CCRF-CEM leukemia, in the experiment on HCT-15 colon, in the experiment on NCI-H226 lung, in the experiment with NCI-H522 lung, in the experiment on NCI/ADR-RES ovarian and in the experiment on OVCAR-3 ovarian was over 100 µM in each case. Besides, the TGI in the experiment on OVCAR-4 ovarian, in the experiment on SF-539 CNS, in the experiment with SK-MEL-2 melanoma and in the experiment on SK-MEL-28 melanoma was over 100 µM each time.
For `O=C(Nc1cccc(-n2ccc3c(NC(=O)c4ccccc4)nccc32)c1)c1ccc(N2CCOCC2)c(C(F)(F)F)c1`, the GI50 is 0.0618 µM in the experiment with CCRF-CEM leukemia; 0.037 µM in the experiment on HCT-15 colon; 0.0827 µM in the experiment on NCI-H226 lung; 0.0319 µM in the experiment with NCI-H522 lung; 0.0352 µM in the experiment on NCI/ADR-RES ovarian; 0.0233 µM in the experiment on OVCAR-3 ovarian. Moreover, the GI50 is 0.168 µM in the experiment on OVCAR-4 ovarian, 0.0358 µM with SF-539 CNS, 0.253 µM in the experiment with SK-MEL-2 melanoma and 0.0436 µM in the experiment on SK-MEL-28 melanoma. The TGI in the experiment with CCRF-CEM leukemia was over 100 µM; in the experiment with HCT-15 colon, over 64.7 µM; in the experiment on NCI-H226 lung, over 92.9 µM; in the experiment with NCI-H522 lung, 0.545 µM; in the experiment on NCI/ADR-RES ovarian, over 51.4 µM; in the experiment on OVCAR-3 ovarian, 0.0504 µM. For the same compound, the TGI in the experiment on OVCAR-4 ovarian was over 70.7 µM; in the experiment on SF-539 CNS, 3.42 µM; with SK-MEL-2 melanoma it was 20.1 µM; with SK-MEL-28 melanoma it was over 100 µM.
